# Data taken from article PMC11372837, “Albumin-Mediated Drug Uptake by Organic Anion Transporter 1/3 Is Real: Implications for the Prediction of Active Renal Secretion Clearance” (Molecular Pharmaceutics, 2024).
# “Also recorded” adds a separate entry of the source. Where two headings read alike, the source gives them in different places.
# Tests used:
# human serum albumin = human serum albumin (Homo sapiens, UniProt P02768); assay: Extent of albumin binding: high throughput equilibrium dialysis (fu,inc, Kd); type: in vitro ADME; conditions: mean ± SD; for fu,inc (4%) / fraction unbound at 6 h: equilibrium dialysis 37 °C 6 h; for fraction unbound at 6 h: human
# Sequence of human serum albumin (P02768 25-609): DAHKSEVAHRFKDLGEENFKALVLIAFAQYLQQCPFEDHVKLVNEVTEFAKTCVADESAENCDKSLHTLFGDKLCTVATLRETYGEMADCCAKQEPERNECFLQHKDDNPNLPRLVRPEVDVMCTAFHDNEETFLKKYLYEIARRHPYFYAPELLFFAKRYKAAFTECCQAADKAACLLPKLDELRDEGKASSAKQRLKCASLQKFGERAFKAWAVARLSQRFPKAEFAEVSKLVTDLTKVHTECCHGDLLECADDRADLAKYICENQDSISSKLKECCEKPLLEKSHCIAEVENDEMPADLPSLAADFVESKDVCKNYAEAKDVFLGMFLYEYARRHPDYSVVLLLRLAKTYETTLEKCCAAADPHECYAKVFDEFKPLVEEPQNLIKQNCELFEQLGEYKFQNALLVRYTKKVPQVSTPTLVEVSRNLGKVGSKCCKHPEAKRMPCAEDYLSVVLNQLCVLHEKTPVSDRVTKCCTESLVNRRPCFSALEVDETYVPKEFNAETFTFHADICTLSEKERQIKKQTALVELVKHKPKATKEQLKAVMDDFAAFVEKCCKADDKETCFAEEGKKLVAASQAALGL
# Procedure: Briefly, cellulose membranes with MWCO of 12–14 kDa were submerged in distilled water for 1 h, followed by 20% ethanol/distilled water for at least 20 min. Prior to the start of the experiment, cellulose membranes were rinsed in distilled water and submerged in blank DPBS for 15 min. The HTDialysis device was assembled according to the manufacturer’s instructions (https://www.htdialysis.com). Blank DPBS was first added to the receiver side of the dialysis membranes, followed by DPBS spiked with HSA and the OAT1/3 substrate to the donor side. Each HSA concentration was tested in triplicates. The HTDialysis device was sealed with an adhesive sealing film and incubated in a water bath at 37 °C for 6 h shaken at 150 rpm. Once the assay was completed, aliquots from both receiver and donor wells were transferred to a 96-well plate and stored at −80 °C until analysis. DPBS spiked with the OAT1/3 substrate from both before and after incubation was stored to assess the recovery and stability of the samples. To prepare the sample for analysis, donor and receiver samples were matrix-matched and quenched with ice-cold acetonitrile containing an internal standard (0.5 μM gemfibrozil or 0.05 μM buspirone).
# OAT1/3 [1] = assay: Bottom-up IVIVE of CLint,sec, CLsec and CLr, relative expression factor (REF) approach; parameters: species or system human; conditions: REF approach
# Text: (§1) The relative expression and relative activity factor (REF and RAF) are unitless scalers that account for in vivo versus in vitro differences in the abundance and activity of OAT1/3 and are used for IVIVE of in vitro CLint,u,active. REF was derived from the OAT1/3 expression ratio between the in vivo human kidney cortex to the in vitro ciPTEC-OAT1/3, as shown in eq 7: [drawing 8] 7 Absolute abundance of OAT1 and OAT3 in the human kidney cortex was previously quantified by our group using the filter-aided sample preparation protocol and global proteomic analysis.[44]
# [2] = in vivo, plasma renal clearance, clinical data; cited from earlier work
# OAT1 [3] = target: T1, OAT1 (Homo sapiens, UniProt Q4U2R8); assay: OAT1 uptake study in ciPTEC-OAT1
# T1 sequence (Q4U2R8 1-563): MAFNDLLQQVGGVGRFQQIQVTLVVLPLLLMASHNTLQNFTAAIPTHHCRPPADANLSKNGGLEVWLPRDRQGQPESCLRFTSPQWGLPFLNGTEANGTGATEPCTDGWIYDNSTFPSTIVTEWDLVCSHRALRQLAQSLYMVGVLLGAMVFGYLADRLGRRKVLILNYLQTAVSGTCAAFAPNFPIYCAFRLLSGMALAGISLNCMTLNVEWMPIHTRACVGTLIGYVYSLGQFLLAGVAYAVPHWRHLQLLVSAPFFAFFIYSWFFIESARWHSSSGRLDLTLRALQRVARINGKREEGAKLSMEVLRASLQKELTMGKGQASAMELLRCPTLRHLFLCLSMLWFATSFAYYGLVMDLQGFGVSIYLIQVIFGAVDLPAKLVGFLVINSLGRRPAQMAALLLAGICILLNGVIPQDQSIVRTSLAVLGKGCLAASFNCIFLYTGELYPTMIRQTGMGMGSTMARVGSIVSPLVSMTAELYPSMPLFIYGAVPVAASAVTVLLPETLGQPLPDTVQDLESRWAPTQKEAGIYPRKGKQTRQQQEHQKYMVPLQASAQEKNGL
# OAT3 [4] = target: T2, OAT3 (Homo sapiens, UniProt Q8TCC7); assay: OAT3 uptake study in ciPTEC-OAT3; conditions: for Vb,max OAT3, Active and Passive Uptake: eq 4 fitted to CLint,u; for Vb,max OAT3, Active and Passive Uptake / Vb,max OAT3, Active Uptake Only: mean ± S.D.; for Vb,max OAT3, Active Uptake Only: eq 4 fitted to CLint,u,active
# T2 sequence (Q8TCC7 1-542): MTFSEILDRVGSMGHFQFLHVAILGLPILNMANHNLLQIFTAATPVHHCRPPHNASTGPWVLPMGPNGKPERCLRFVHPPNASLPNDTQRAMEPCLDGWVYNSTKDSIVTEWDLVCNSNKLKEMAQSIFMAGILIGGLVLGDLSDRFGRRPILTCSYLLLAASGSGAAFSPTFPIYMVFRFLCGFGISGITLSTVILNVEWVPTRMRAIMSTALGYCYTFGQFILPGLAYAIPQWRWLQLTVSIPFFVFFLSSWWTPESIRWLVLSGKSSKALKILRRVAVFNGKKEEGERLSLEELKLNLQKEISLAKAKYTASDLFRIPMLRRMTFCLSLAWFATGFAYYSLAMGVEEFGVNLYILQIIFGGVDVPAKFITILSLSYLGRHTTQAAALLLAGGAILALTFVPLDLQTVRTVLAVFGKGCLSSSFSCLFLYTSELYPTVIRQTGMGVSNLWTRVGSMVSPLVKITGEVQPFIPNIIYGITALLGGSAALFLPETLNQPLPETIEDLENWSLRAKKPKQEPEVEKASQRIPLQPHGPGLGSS
# [5] = Observed in vivo (clinical) renal, secretion and intrinsic secretion clearance; conditions: in vivo; for CLint,sec Observed: back-calculated from clinical data
# OAT1 [6] = assay: as above; conditions: human, plasma
# [7] = human, in vivo
# OAT3 [8] = assay: clinical; conditions: human
# OAT1/3 [9] = assay: Bottom-up IVIVE of CLint,sec, CLsec and CLr, relative activity factor (RAF) approach; parameters: species or system human
# Text: as §1
# [10] = 1% human serum albumin in DPBS, 1% HSA, read-out: fu,inc (1%)
# [11] = 4% HSA in DPBS, 4% HSA, read-out: fu,inc (4%)
fraction unbound at 6 h (human serum albumin; [10]),fraction unbound at 6 h (human serum albumin; [11]),CLsec Observed [7],"Vb,max OAT3, Active and Passive Uptake (OAT3 [4])","Vb,max OAT3, Active Uptake Only (OAT3 [4])",Structure (SMILES),"fu,inc (4%) (human serum albumin; 4% HSA)","CLint,sec Predicted 0% HSA (OAT1/3 [1])","CLint,sec Predicted 1% HSA (OAT1/3 [1])","CLint,sec Predicted 4% HSA (OAT1/3 [1])",CLsec Predicted 0% HSA (OAT1/3 [1]),CLsec Predicted 1% HSA (OAT1/3 [1]),CLsec Predicted 4% HSA (OAT1/3 [1]),CLr Observed [2],"CLint,sec Observed [5]",further results
0.973 ± 0.039,> 0.95,8.29 L/h,-1150 ± 2660 pmol/min/mg,-1120 ± 2640 pmol/min/mg,CCC(CC)O[C@@H]1C=C(C(=O)O)C[C@H](N)[C@H]1NC(C)=O [oseltamivir carboxylate],0.983 ± 0.018,,,,,,,15.6 L/h,,"CLint,sec Observed [7]: 11.7 L/h; microsomal CLint (OAT3 [8]): 36.2 µL/min/mg; Effect of HSA on OAT3 uptake / CLint,u,active (OAT3 [4]; 1 and 4% HSA vs control): no effect; also recorded: did not show any significant change; also recorded: absence of any change"
0.217 ± 0.006,0.096 ± 0.007,2.63 L/h,723 ± 216 pmol/min/mg,714 ± 201 pmol/min/mg,O=C(NC[C@H]1CN(c2ccc(N3CCOCC3=O)cc2)C(=O)O1)c1ccc(Cl)s1 [rivaroxaban],,6.78 L/h,41.7 L/h,67.0 L/h,0.48 L/h,2.79 L/h,4.32 L/h,3.17 L/h,41.2 L/h,"Kd (human serum albumin; estimated using eq 3 from measured fu,inc): 55 ± 4.3 µM; CLint,sec Predicted 0% HSA (OAT1/3 [9]): 34.1 L/h; CLint,sec Predicted 1% HSA (OAT1/3 [9]): 210 L/h; CLint,sec Predicted 4% HSA (OAT1/3 [9]): 337.7 L/h; CLsec Predicted 0% HSA (OAT1/3 [9]): 2.32 L/h; CLsec Predicted 1% HSA (OAT1/3 [9]): 11.1 L/h; CLsec Predicted 4% HSA (OAT1/3 [9]): 15.4 L/h; OAT1 substrate status (uptake in ciPTEC-OAT1) (OAT1 [3]; control vs probenecid 300 μM): did not show any appreciable uptake; ratio of CLint,u,active (R) (HSA/control) 1% (OAT3 [4]; OAT3, 1% HSA vs control): 6.44 ± 2.61; ratio of CLint,u,active (R) (HSA/control) 4% (OAT3 [4]; OAT3, 4% HSA vs control): 10.0 ± 2.2"

Structure (SMILES),fraction unbound at 6 h (human serum albumin; [10]),fraction unbound at 6 h (human serum albumin; [11]),CLsec Observed [7],"Vb,max OAT3, Active and Passive Uptake (OAT3 [4])","Vb,max OAT3, Active Uptake Only (OAT3 [4])","fu,inc (4%) (human serum albumin; 4% HSA)","CLint,sec Predicted 0% HSA (OAT1/3 [1])","CLint,sec Predicted 1% HSA (OAT1/3 [1])","CLint,sec Predicted 4% HSA (OAT1/3 [1])",CLsec Predicted 0% HSA (OAT1/3 [1]),CLsec Predicted 1% HSA (OAT1/3 [1]),CLsec Predicted 4% HSA (OAT1/3 [1]),CLr Observed [2],"CLint,sec Observed [5]",further results
Nc1ncnc2c1ncn2CCOCP(=O)(O)O [adefovir],0.999 ± 0.019,> 0.95,,,,0.977 ± 0.062,42.9 L/h,57.8 L/h,44.7 L/h,21.3 L/h,25.1 L/h,21.8 L/h,14.2 L/h,10.8 L/h,"Effect of HSA on OAT1 uptake / CLint,u,active (OAT1 [3]; 1 and 4% HSA vs control): no effect; also recorded: did not show any significant change; also recorded: absence of any change; Vb,max OAT1, Active and Passive Uptake (OAT1 [3]; eq 4 fitted to CLint,u, mean ± S.D.): -1083 ± 194000 pmol/min/mg; Vb,max OAT1, Active Uptake Only (OAT1 [3]; eq 4 fitted to CLint,u,active, Kd,m fixed from OAT3 data, mean ± S.D.): 3055 ± 188000 pmol/min/mg; OAT3 substrate status (uptake in ciPTEC-OAT3) (OAT3 [4]; control vs probenecid 300 μM): not an OAT3 substrate; CLsec Observed ([5]; plasma secretion clearance): 7.82 L/h; microsomal CLint (OAT1 [6]): 35.2 µL/min/mg"
